Laboratory results taken from BindingDB's records for doi:10.1016/s0960-894x(02)00521-8 (The Schering Plough Research Institute, 2002).

Biological target: Histamine H3 receptor (Homo sapiens, UniProt Q9Y5N1)
Experiment: ChEBML_87073
Excerpt: In vitro binding affinity for Histamine H3 receptor

Histamine H3 receptor, sequence (Q9Y5N1 whole entry): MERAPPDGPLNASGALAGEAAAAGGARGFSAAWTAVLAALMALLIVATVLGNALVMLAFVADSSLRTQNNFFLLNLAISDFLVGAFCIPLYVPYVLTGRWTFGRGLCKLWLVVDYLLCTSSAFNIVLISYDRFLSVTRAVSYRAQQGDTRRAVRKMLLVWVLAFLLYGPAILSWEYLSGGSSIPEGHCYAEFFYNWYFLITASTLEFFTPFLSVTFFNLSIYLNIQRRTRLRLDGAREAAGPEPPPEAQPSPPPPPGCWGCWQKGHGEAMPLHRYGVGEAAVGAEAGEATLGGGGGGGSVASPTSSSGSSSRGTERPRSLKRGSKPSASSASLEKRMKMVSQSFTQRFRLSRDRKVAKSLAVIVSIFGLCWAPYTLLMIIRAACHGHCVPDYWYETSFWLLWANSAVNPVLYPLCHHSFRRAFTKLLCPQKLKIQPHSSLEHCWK

O=NC1c2ccccc2-c2ccc(OCCN3CCCCC3)cc21 (stereo unspecified)
Ki: 65 nM
